Reference: the NIST ThermoML archive (doi:10.1016/j.fluid.2017.01.019)

Test: xn = mol fraction of the nth substance listed
Details: 100 kPa, Liquid; for viscosity: Falling or rolling sphere viscometry; for speed of sound: Frequency=3 MHz, Sing-around technique in a fixed-path interferometer; for mass density: Vibrating tube method

CCCCO [butan-1-ol] + CO
Details | mass density [kg/m3] | speed of sound [m/s] | viscosity [mPa·s]
293.15 K, x1 = 0.0997 | – | – | 0.7
293.15 K, x1 = 0.1994 | – | – | 0.83
293.15 K, x1 = 0.3068 | – | – | 0.99
293.15 K, x1 = 0.3991 | – | – | 1.15
293.15 K, x1 = 0.5082 | – | – | 1.36
293.15 K, x1 = 0.604 | – | – | 1.57
293.15 K, x1 = 0.6992 | – | – | 1.77
293.15 K, x1 = 0.7994 | – | – | 2.05
293.15 K, x1 = 0.9038 | – | – | 2.34
293.15 K, x1 = 1 | – | – | 2.61
298.15 K, x1 = 0.0997 | 791.339 | 1130.6 | –
298.15 K, x1 = 0.1994 | 794.665 | 1150 | –
298.15 K, x1 = 0.3068 | 797.503 | 1169.2 | –
298.15 K, x1 = 0.3991 | 799.477 | 1183.5 | –
298.15 K, x1 = 0.5082 | 801.494 | 1197 | –
298.15 K, x1 = 0.604 | 802.958 | 1210.3 | –
298.15 K, x1 = 0.6992 | 804.13 | 1218 | –
298.15 K, x1 = 0.7994 | 805.057 | 1228.8 | –
298.15 K, x1 = 0.9038 | 805.689 | 1235.8 | –
298.15 K, x1 = 1 | 806.27 | 1241.1 | –
303.15 K, x1 = 0.0997 | 786.81 | 1114.2 | 0.65
303.15 K, x1 = 0.1994 | 790.266 | 1133.6 | 0.76
303.15 K, x1 = 0.3068 | 793.243 | 1152.4 | 0.91
303.15 K, x1 = 0.3991 | 795.305 | 1166.7 | 1.05
303.15 K, x1 = 0.5082 | 797.42 | 1180.4 | 1.23
303.15 K, x1 = 0.604 | 798.956 | 1193.7 | 1.41
303.15 K, x1 = 0.6992 | 800.184 | 1201.4 | 1.59
303.15 K, x1 = 0.7994 | 801.155 | 1212.1 | 1.83
303.15 K, x1 = 0.9038 | 801.817 | 1219.1 | 2.08
303.15 K, x1 = 1 | 802.42 | 1224.3 | 2.31
308.15 K, x1 = 0.0997 | 782.263 | 1097.9 | 0.6
308.15 K, x1 = 0.1994 | 785.837 | 1117.3 | 0.71
308.15 K, x1 = 0.3068 | 788.95 | 1136.4 | 0.84
308.15 K, x1 = 0.3991 | 791.101 | 1150.6 | 0.96
308.15 K, x1 = 0.5082 | 793.315 | 1163.9 | 1.12
308.15 K, x1 = 0.604 | 794.922 | 1177.2 | 1.28
308.15 K, x1 = 0.6992 | 796.169 | 1184.8 | 1.43
308.15 K, x1 = 0.7994 | 797.222 | 1195.5 | 1.64
308.15 K, x1 = 0.9038 | 797.914 | 1202.4 | 1.86
308.15 K, x1 = 1 | 798.536 | 1207.5 | 2.07
313.15 K, x1 = 0.0997 | 777.683 | 1081.8 | 0.56
313.15 K, x1 = 0.1994 | 781.397 | 1101 | 0.66
313.15 K, x1 = 0.3068 | 784.606 | 1119.8 | 0.77
313.15 K, x1 = 0.3991 | 786.863 | 1134.2 | 0.88
313.15 K, x1 = 0.5082 | 789.167 | 1147.5 | 1.02
313.15 K, x1 = 0.604 | 790.889 | 1160.7 | 1.18
313.15 K, x1 = 0.6992 | 792.224 | 1168.3 | 1.29
313.15 K, x1 = 0.7994 | 793.273 | 1178.9 | 1.47
313.15 K, x1 = 0.9038 | 793.979 | 1185.7 | 1.66
313.15 K, x1 = 1 | 794.617 | 1190.9 | 1.85
318.15 K, x1 = 0.0997 | 773.076 | 1065.7 | 0.53
318.15 K, x1 = 0.1994 | 776.932 | 1084.9 | 0.61
318.15 K, x1 = 0.3068 | 780.263 | 1103.6 | 0.71
318.15 K, x1 = 0.3991 | 782.592 | 1118 | 0.81
318.15 K, x1 = 0.5082 | 784.996 | 1131.2 | 0.93
318.15 K, x1 = 0.604 | 786.847 | 1144.4 | 1.05
318.15 K, x1 = 0.6992 | 788.248 | 1151.8 | 1.17
318.15 K, x1 = 0.7994 | 789.325 | 1162.4 | 1.33
318.15 K, x1 = 0.9038 | 789.993 | 1169.2 | 1.49
318.15 K, x1 = 1 | 790.655 | 1174.2 | 1.66
323.15 K, x1 = 0.0997 | 768.447 | 1049.7 | 0.51
323.15 K, x1 = 0.1994 | 772.448 | 1068.9 | 0.58
323.15 K, x1 = 0.3068 | 775.921 | 1087.5 | 0.66
323.15 K, x1 = 0.3991 | 778.306 | 1101.8 | 0.75
323.15 K, x1 = 0.5082 | 780.936 | 1115 | 0.86
323.15 K, x1 = 0.604 | 782.762 | 1128 | 0.96
323.15 K, x1 = 0.6992 | 784.201 | 1135.4 | 1.06
323.15 K, x1 = 0.7994 | 785.373 | 1145.9 | 1.2
323.15 K, x1 = 0.9038 | 785.98 | 1152.6 | 1.35
323.15 K, x1 = 1 | 786.645 | 1157.6 | 1.5
